Assay results reported in US20240010639A1, “TRIAZINE DIONE DERIVATIVE, PREPARATION METHOD THEREFOR AND APPLICATION THEREOF IN MEDICINE” (Jiangsu Hengrui Pharmaceuticals Co., Ltd., priority 2020, published 2024).

Legend:
[1] = Toxicokinetic evaluation of 14-day repeated intragastric administration to SD rats; type: in vivo; settings: both sexes, SD, rat, plasma, po
Procedure: With SD rats as test animals, the plasma concentrations of the test compounds and the concentrations of the original forms of the compounds in the administration solutions were measured by LC/MS/MS at different time points after intragastric administration. The toxicokinetic performance of the compound disclosed herein was studied in SD rats and its toxicokinetic profile was evaluated.
24 SD rats, an equal number of males and females, evenly divided into 6 groups of 4, an equal number of males and females in each group, provided by Vital River Laboratory Animal Technology Co., Ltd.
A certain amount of the compound of Example 16 was measured out, and 15% PEG400 and 85% (10% TPGS+1% HPMC K100LV) were added to prepare a pale yellow homogenous suspension.
A certain amount of compound MYK-461 was measured out, and 0.5% MC was added to prepare a colorless clear solution.
The compound of Example 16 was intragastrically administered at doses of 5 mg/kg, 15 mg/kg and 30 mg/kg, at a volume of 10 mL/kg.
Compound MYK-461 was administered at doses of 0.5 mg/kg, 1.5 mg/kg and 3 mg/kg, at a volume of 10 mL/kg.
0.2-mL blood samples were collected from the orbit 0.5 h, 1.0 h, 2.0 h, 4.0 h, 8.0 h and 24.0 h after administration on day 1, and before administration and 0.5 h, 1.0 h, 2.0 h, 4.0 h, 8.0 hi, 24.0 h after administration on day 7 and day 14, placed into EDTA-K2 anticoagulation tubes, and centrifuged at 10,000 rpm for 1 min (4° C.), and plasma was isolated within 1 h and stored at −20° C. before analysis. The blood collection to centrifugation process was performed under ice bath conditions. Two hours after administration, feeding was resumed.
Determination of plasma concentrations in SD rats after intragastric administration of different concentrations of test compounds: 20 μL of SD rat plasma at each time point post-dose was mixed with 50 μL of an internal standard solution (internal standard for the compound of Example 16: 100 ng/mL verapamil; internal standard for compound MYK-461: 100 ng(mL camptothecin) and 200 μL of acetonitrile; the mixture was vortexed for 5 min and centrifuged at 3700 rpm for 10 min, and 1 μL of the supernatant was taken for LC/MS/MS analysis.

[2] = Pharmacokinetic evaluation in cynomolgus monkeys; type: in vivo; settings: for AUC: read-out: Area under curve AUC; for half-life: read-out: Half-life T1/2 (converted); for Cmax: read-out: Plasma concentration Cmax; for MRT: read-out: Residence time MRT
Procedure: With cynomolgus monkeys as test animals, the plasma concentrations of the test compounds were measured by LC/MS/MS at different time points after intragastric administration and intravenous injection. The pharmacokinetic performance of the compound disclosed herein was studied in cynomolgus monkeys and its pharmacokinetic profile was evaluated.
Pharmacokinetics of the compound of Example 16 in cynomolgus monkeys: 8 cynomolgus monkeys, an equal number of males and females, divided into 2 groups of 4, provided by Shanghai Medicilon Inc.
Pharmacokinetics of compound MYK-461 in cynomolgus monkeys: 6 cynomolgus monkeys, male, divided into 2 groups of 3, provided by Shanghai Medicilon Inc.
A certain amount of the compound of Example 16 was measured out, and 5% DMSO, 30% PG, 30% PEG400 and 35% normal saline were added to prepare a clear solution.
A certain amount of compound MYK-461 was measured out, and 5% DMSO, 20% PG, 20% PEG400 and 55% normal saline were added to prepare a clear solution.
Cynomolgus monkeys were fasted overnight and then given compounds by intragastric administration and intravenous injection at doses of 2 mg/kg and 0.5 mg/kg, respectively, and at volumes of 5 mL/kg and 2 mL/kg, respectively.
1.0-mL blood samples were collected from the forelimb veins of the animals in the intragastric administration group before administration and 0.25 h, 0.5 h, 1h, 2 h, 4 h, 6 h, 8 h, 12 h and 24 h after administration, placed into EDTA-K2 anticoagulant tubes, and centrifuged at 10,000 rpm for 5 min (4° C.), and plasma was isolated within 1 h and stored at −80° C. before analysis. The blood collection to centrifugation process was performed under ice bath conditions. Three hours after administration, feeding was resumed, and ad libitum access to water was given.
Blood samples were collected from the animals in the intravenous injection group before administration and 5 min, 0.25 h, 0.5 h, 1.0 h, 2.0 h, 4.0 h, 8.0 h, 12.0 h and 24.0 h after administration and processed as in the intragastric administration group.
Determination of plasma concentrations in cynomolgus monkeys after intragastric administration and intravenous injection of different concentrations of test compounds: 20 μL of cynomolgus monkey plasma at each time point post-dose was mixed with an internal standard solution (internal standard for the compound of Example 16: 10 ng/mL verapamil; internal standard for compound MYK-461: 100 ng/mL camptothecin) and 400 μL of methanol; the mixture was vortexed for 1 min and centrifuged at 18,000 g for 7 min, and 200 μL of the supernatant was transferred to a 96-well plate: 2 μL of the supernatant was taken for LC/MS/MS analysis.

[3] = both (Example 16), male (MYK-461), cynomolgus monkey, plasma, intravenous injection, 0.5 mg/kg
[4] = both (Example 16), male (MYK-461), cynomolgus monkey, plasma, po, intragastric administration, 2 mg/kg
[5] = intravenous injection, 0.5 mg/kg

Work on `Cc1ccc(F)c([C@H](C)Nc2nc(=O)n(C3CCOCC3)c(=O)[nH]2)c1` [Example 16, (S)-6-((1-(2-Fluoro-5-methylphenyl)ethyl)amino)-3-(tetrahydro-2H-pyran-4-yl)-1,3,5-triazine-2,4(1H,3H)-dione] yielded a half-life ([1]; 15 mg/kg, repeated intragastric 15 mg/kg, Day 14, read-out: Half-life T1/2 (converted)) of 5.6 h, a Cmax ([1]; 15 mg/kg, repeated intragastric 15 mg/kg, Day 14, read-out: Plasma concentration Cmax) of 14100 ng/mL and an MRT ([1]; 15 mg/kg, repeated intragastric 15 mg/kg, Day 14, read-out: Residence time MRT) of 6.4 h. It also gave a Vd/F ([1]; 30 mg/kg, repeated intragastric 30 mg/kg, Day 1, read-out: Apparent volume of distribution Vz/F) of 2.26 L/kg, an AUC ([1]; 30 mg/kg, repeated intragastric 30 mg/kg, Day 1, read-out: Area under curve AUC) of 105 µg·h/mL and a CL/F ([1]; 30 mg/kg, repeated intragastric 30 mg/kg, Day 1, read-out: Clearance CL/F) of 4.72 mL/min/kg. The half-life ([1]; 30 mg/kg, repeated intragastric 30 mg/kg, Day 1, read-out: Half-life T1/2 (converted)) was 5.6 h, the Cmax ([1]; 30 mg/kg, repeated intragastric 30 mg/kg, Day 1, read-out: Plasma concentration Cmax) was 18700 ng/mL and the MRT ([1]; 30 mg/kg, repeated intragastric 30 mg/kg, Day 1, read-out: Residence time MRT) was 6.4 h. For the same molecule, the Vd/F ([1]; 30 mg/kg, repeated intragastric 30 mg/kg, Day 7, read-out: Apparent volume of distribution Vz/F) was 2.15 L/kg, the AUC ([1]; 30 mg/kg, repeated intragastric 30 mg/kg, Day 7, read-out: Area under curve AUC) was 121 µg·h/mL and the CL/F ([1]; 30 mg/kg, repeated intragastric 30 mg/kg, Day 7, read-out: Clearance CL/F) was 4.14 mL/min/kg. The half-life ([1]; 30 mg/kg, repeated intragastric 30 mg/kg, Day 7, read-out: Half-life T1/2 (converted)) was 5.9 h, the Cmax ([1]; 30 mg/kg, repeated intragastric 30 mg/kg, Day 7, read-out: Plasma concentration Cmax) was 21600 ng/mL and the MRT ([1]; 30 mg/kg, repeated intragastric 30 mg/kg, Day 7, read-out: Residence time MRT) was 6.7 h. The Vd/F ([1]; 30 mg/kg, repeated intragastric 30 mg/kg, Day 14, read-out: Apparent volume of distribution Vz/F) was 1.69 L/kg, the AUC ([1]; 30 mg/kg, repeated intragastric 30 mg/kg, Day 14, read-out: Area under curve AUC) was 139 µg·h/mL and the CL/F ([1]; 30 mg/kg, repeated intragastric 30 mg/kg, Day 14, read-out: Clearance CL/F) was 3.52 mL/min/kg. The half-life ([1]; 30 mg/kg, repeated intragastric 30 mg/kg, Day 14, read-out: Half-life T1/2 (converted)) was 5.6 h, the Cmax ([1]; 30 mg/kg, repeated intragastric 30 mg/kg, Day 14, read-out: Plasma concentration Cmax) was 20000 ng/mL and the MRT ([1]; 30 mg/kg, repeated intragastric 30 mg/kg, Day 14, read-out: Residence time MRT) was 6.9 h. For the same molecule, the “T1/2 comparison (in words)” value [2] was “significantly shorter T1/2”, the “absorption profile (in words)” value [2] was “good absorption profile” and the AUC [2, 3] was 1.02 µg·h/mL. It also gave a half-life [2, 3] of 5.6 h, a Cmax [2, 3] of 1660 ng/mL and an MRT [2, 3] of 6.8 h. For the same molecule, the Vd/F ([2]; both (Example 16), male (MYK-461), cynomolgus monkey, plasma, po, intragastric administration, 2 mg/kg, read-out: Apparent volume of distribution Vz/F) was 10.3 L/kg, the AUC [2, 4] was 2.41 µg·h/mL and the CL/F ([2]; both (Example 16), male (MYK-461), cynomolgus monkey, plasma, po, intragastric administration, 2 mg/kg, read-out: Clearance CL/F) was 11.8 mL/min/kg. It also gave a half-life [2, 4] of 10.3 h, a Cmax [2, 4] of 553 ng/mL and an MRT [2, 4] of 12.5 h. For the same molecule, the “Apparent volume of distribution Vz/F” value [2, 5] was 3.579 L/kg and the “Clearance CL/F” value [2, 5] was 7.46 mL/min/kg.
